Assay [1] relates to chloroform-induced arrhythmia. In words: inhibition of chloroform-induced arrhythmia in the mouse (J. W. Lawson method). In kind it is in vivo. To be noted: ip, intraperitoneal administration, read-out: ED50, prevention of chloroform-induced arrhythmia. An excerpt:
2. In the mouse, another in vivo test involves the inhibition of chloroform-induced arrhythmia according to the method of J. W. Lawson, Journal of Pharmacology and Experimental Therapeutics, 160, 22 (1968).

The test system of another assay is rabbit atrium. As to the kind of experiment: in vitro rabbit atrium test, steady state refractory period. To be noted: rabbit left atrium, Chenoweth's solution, 30° C., stimulated at 30/minute, five minute interval. The method, then:
3. […] In this test, the left atrium is placed in Chenoweth's solution warmed to 30° C. and irrigated with 95% oxygen:5% carbon dioxide. The lower end of the atrium is attached to a small hook fixed in the bath and the upper end is connected to a transducer to record contractile activity. The atrium is electrically stimulated at a basic rate of 30/minute by employing square wave pulses of 10 millisecond duration at 1.2 to 1.5 times threshold voltage. A test compound is introduced into the bath and the test repeated after a five minute interval. A dose-response relationship is obtained with additional doses of the test compound. […] This value is designated the EC50.

On to `CN1CCCCC1CCc1ccccc1NC(=O)Nc1ccccc1` (stereo not drawn) [Example 1, 2-[2-(1-Methyl-2-piperidinyl)ethyl]carbanilide], for which, in assay [1], the ED50 stood at 23 mg/kg. The “EC50 (effective concentration which reduces to 50% the maximal increase in the steady state refractory period of the atrium)” value in the assay on rabbit atrium was found to be 1.5 µg/mL. Consider `COc1ccc(NC(=O)Nc2ccccc2CCC2CCCCN2C)cc1` (stereo not drawn) [Example 2, 4'-Methoxy-2-[2-(1-methyl-2-piperidinyl)ethyl]carbanilide], for which the ED50 in assay [1] came to 46 mg/kg. Besides, in the assay on rabbit atrium, the “EC50 (effective concentration which reduces to 50% the maximal increase in the steady state refractory period of the atrium)” value stood at 29 µg/mL. Consider `CN1CCCCC1CCc1ccccc1NC(=S)Nc1ccccc1` (stereo not drawn) [Example 9, 2-[2-(1-Methyl-2-piperidinyl)ethyl]thiocarbanilide], for which the “EC50 (effective concentration which reduces to 50% the maximal increase in the steady state refractory period of the atrium)” value with rabbit atrium was 5.9 µg/mL.

On to `COc1ccc(C(=N)Nc2ccccc2CCC2CCCCN2C)cc1` (stereo not drawn) [Example 15, N-[2-[2-(1-Methyl-2-piperidinyl)ethyl]phenyl]-p-anisamidine], for which the “EC50 (effective concentration which reduces to 50% the maximal increase in the steady state refractory period of the atrium)” value with rabbit atrium came out at 10 µg/mL.

As a reminder, the ED50 is the dose at which the effect has come halfway, by size or by number of responders.
